Assay results taken from patent US20240358693A1, “METHODS OF TREATING PAIN” (Aisa Pharma, Inc., priority 2023, published 2024).

Tested on: participants with SSc-RP
Experiment: Frequency of weekly RP attacks (all attacks; primary efficacy endpoint)
Format: in vivo, human
Settings: for Weekly RP Attacks (All Attacks) Change from Baseline, Mean / Weekly RP Attacks (All Attacks) Change from Baseline, Median / Weekly RP Attacks (All Attacks) Percent Change from Baseline, Mean / Weekly RP Attacks (All Attacks) Percent Change from Baseline, Median / Weekly RP Attacks (All Attacks), Mean / Weekly RP Attacks (All Attacks), Median: Excluding Outliers, by Baseline RCS, ITT Part A; for Weekly RP Attacks Change from Baseline, Max / Weekly RP Attacks Change from Baseline, Mean (SD) / Weekly RP Attacks Change from Baseline, Median / Weekly RP Attacks Change from Baseline, Min / Weekly RP Attacks Change from Baseline, Q1 / Weekly RP Attacks Change from Baseline, Q3 / Weekly RP Attacks Percent Change from Baseline, Max / Weekly RP Attacks Percent Change from Baseline, Mean (SD) / Weekly RP Attacks Percent Change from Baseline, Median / Weekly RP Attacks Percent Change from Baseline, Min / Weekly RP Attacks Percent Change from Baseline, Q1 / Weekly RP Attacks Percent Change from Baseline, Q3 / Weekly RP Attacks, Max / Weekly RP Attacks, Mean (SD) / Weekly RP Attacks, Median / Weekly RP Attacks, Min / Weekly RP Attacks, Q1 / Weekly RP Attacks, Q3: all attacks, excluding outliers, tadalafil 5 mg daily
Source text: Percent change from baseline evaluation for frequency of weekly RP attacks were or will be used as the primary efficacy variable. The sponsor-developed participant-informed diary will be used to record data. Frequency of weekly RP attacks is defined as the total number of RP attacks divided by the number of days with available diary data within the last 7 days of each dosing period then multiplied by 7. Total number of RP attacks during the last 7 days of screening period divided by the number of days with available data then multiplied by 7 will be used as baseline for the analysis of all periods. The variable will be calculated as follows:
Percentage change={(weekly RP attacks for the last 7 days of each dosing period−Baseline weekly RP attacks)/Baseline weekly RP attacks}*100%.
Absolute change=weekly RP attacks for the last 7 days of each dosing period−Baseline weekly RP attacks
Percent change from baseline evaluation for frequency of weekly RP attacks was and will be the primary efficacy endpoint. Frequency of weekly RP attacks is defined as the total number of RP attacks divided by the number of days with available diary data within the last 7 days of each dosing period then multiplied by 7. Total number of RP attacks during the last 7 days of screening period divided by the number of days with available data then multiplied by 7 will be used as baseline for the analysis of all periods.
Percent change from baseline evaluation for frequency of weekly RP attacks were the primary efficacy endpoint. Data collected in the last 7 days of each dosing period were used for this analysis. Screening assessments were used as baseline for the analysis of all periods. No multiple comparison adjustment were used to control alpha for the multiple comparisons. Mixed effects model were used for analysis of the primary endpoint according to the crossover design. Other efficacy endpoints of continuous variables were analyzed using similar methodology. For nominal data, chi-square tests were applied. Generalized Estimating Equations method were used, as appropriate, for adjusting for potential confounding factors. In addition, the final analysis assessed whether in this study of severe Raynaud's disease participants, the minimally important difference, previously concluded of 14-15 points on the 100 point RCS scale had been achieved in the cilnidipine dose group. It also recorded the percentage of participants achieving a PASS (34 point difference from baseline on a 0-100 VAS) in each treatment group.

[1] = Cilnidipine 10 mg, n=1, first subgroup
[2] = Cilnidipine 20 mg (n=3), subgroup n = 2
[3] = Cilnidipine 20 mg, n=2, first subgroup
[4] = Pooled Cilnidipine 10 mg and Cilnidipine 10 mg + Tadalafil 5 mg, n=1, second subgroup
[5] = Pooled Cilnidipine 10 mg and Cilnidipine 10 mg + Tadalafil 5 mg, n=2, first subgroup
[6] = Pooled Cilnidipine 20 mg and Cilnidipine 20 mg + Tadalafil 5 mg, n=1, second subgroup
[7] = Pooled Cilnidipine 20 mg and Cilnidipine 20 mg + Tadalafil 5 mg, n=3, first subgroup
[8] = Pooled Cilnidipine (n = 7), subgroup n = 2
[9] = Pooled Cilnidipine, n=3, first subgroup
[10] = pooled cilnidipine 10 mg and 20 mg

## COCCOC(=O)C1=C(C)NC(C)=C(C(=O)OC/C=C/c2ccccc2)C1c1cccc([N+](=O)[O-])c1 (stereo not drawn) [Cilnidipine, cilnidipine]
10 mg of cilnidipine (n=3 for both doses)
  reduction in weekly frequency of typical Raynaud attacks: 28%
20 mg of cilnidipine (n=3 for both doses)
  reduction in weekly frequency of typical Raynaud attacks: 46%
[1]
  Weekly RP Attacks (All Attacks) Change from Baseline, Mean: −9.00
  Weekly RP Attacks (All Attacks) Change from Baseline, Median: −9.00
  Weekly RP Attacks (All Attacks) Percent Change from Baseline, Mean: −28.13%
  Weekly RP Attacks (All Attacks) Percent Change from Baseline, Median: −28.13%
  Weekly RP Attacks (All Attacks), Mean: 23.00
  Weekly RP Attacks (All Attacks), Median: 23.00
Cilnidipine 20 mg (n=3), subgroup n = 1
  Subgroup Baseline RCS, <3.5 baseline: <3.5 baseline −42%
[2]
  Subgroup Baseline RCS, >3.5-7.5 baseline: >3.5-7.5 baseline −43%
  Subgroup attack frequency, <10 baseline: <10 baseline −29%
  Subgroup attack frequency, >10 baseline: >10 baseline −50%
[3]
  Weekly RP Attacks (All Attacks) Change from Baseline, Mean: −6.67
  Weekly RP Attacks (All Attacks) Change from Baseline, Median: −6.67
  Weekly RP Attacks (All Attacks) Percent Change from Baseline, Mean: −45.71%
  Weekly RP Attacks (All Attacks) Percent Change from Baseline, Median: −45.71%
  Weekly RP Attacks (All Attacks), Mean: 8.00
  Weekly RP Attacks (All Attacks), Median: 8.00
Cilnidipine (20 mg) (n = 3)
  Mean % reduction of weekly attacks from baseline: 43%
  Mean weekly attacks at baseline: 12.7
  Weekly attack frequency: −43%
  Weekly attack frequency, If baseline RCS <3.5: −42%
[4]
  Weekly RP Attacks (All Attacks) Change from Baseline, Mean: −5.00
  Weekly RP Attacks (All Attacks) Change from Baseline, Median: −5.00
  Weekly RP Attacks (All Attacks) Percent Change from Baseline, Mean: −45.45%
  Weekly RP Attacks (All Attacks) Percent Change from Baseline, Median: −45.45%
  Weekly RP Attacks (All Attacks), Mean: 6.00
  Weekly RP Attacks (All Attacks), Median: 6.00
[5]
  Weekly RP Attacks (All Attacks) Change from Baseline, Mean: −6.50
  Weekly RP Attacks (All Attacks) Change from Baseline, Median: −6.50
  Weekly RP Attacks (All Attacks) Percent Change from Baseline, Mean: −36.28%
  Weekly RP Attacks (All Attacks) Percent Change from Baseline, Median: −36.28%
  Weekly RP Attacks (All Attacks), Mean: 14.00
  Weekly RP Attacks (All Attacks), Median: 14.00
[6]
  Weekly RP Attacks (All Attacks) Change from Baseline, Mean: −1.83
  Weekly RP Attacks (All Attacks) Change from Baseline, Median: −1.83
  Weekly RP Attacks (All Attacks) Percent Change from Baseline, Mean: −14.29%
  Weekly RP Attacks (All Attacks) Percent Change from Baseline, Median: −14.29%
  Weekly RP Attacks (All Attacks), Mean: 11.00
  Weekly RP Attacks (All Attacks), Median: 11.00
[7]
  Weekly RP Attacks (All Attacks) Change from Baseline, Mean: −5.78
  Weekly RP Attacks (All Attacks) Change from Baseline, Median: −4.33
  Weekly RP Attacks (All Attacks) Percent Change from Baseline, Mean: −37.49%
  Weekly RP Attacks (All Attacks) Percent Change from Baseline, Median: −45.00%
  Weekly RP Attacks (All Attacks), Mean: 10.33
  Weekly RP Attacks (All Attacks), Median: 11.00
Pooled Cilnidipine (n = 7)
  Weekly attack frequency: −41%
  Weekly attack frequency, If baseline RCS <3.5: −27%
Pooled Cilnidipine (n = 7), subgroup n = 1
  Subgroup Baseline RCS, 3.5-7.5 baseline: 3.5-7.5 baseline −86%
[8]
  Subgroup attack frequency, <10 baseline: <10 baseline −55%
  Subgroup attack frequency, >10 baseline: >10 baseline −28%
Pooled Cilnidipine (n = 7), subgroup n = 3
  Subgroup Baseline RCS, <3.5 baseline: <3.5 baseline −27%
[9]
  Weekly RP Attacks (All Attacks) Change from Baseline, Mean: −7.44
  Weekly RP Attacks (All Attacks) Change from Baseline, Median: −9.00
  Weekly RP Attacks (All Attacks) Percent Change from Baseline, Mean: −39.85%
  Weekly RP Attacks (All Attacks) Percent Change from Baseline, Median: −45.00%
  Weekly RP Attacks (All Attacks), Mean: 13.00
  Weekly RP Attacks (All Attacks), Median: 11.00
Cilnidipine 10 mg
  Weekly RP Attacks Change from Baseline, Max: −9.0, −9.0
  Weekly RP Attacks Change from Baseline, Mean (SD): −9.00
  Weekly RP Attacks Change from Baseline, Median: −9.00
  Weekly RP Attacks Change from Baseline, Min: −9.0, −9.0
  Weekly RP Attacks Change from Baseline, Q1: −9.00, −9.00
  Weekly RP Attacks Change from Baseline, Q3: −9.00, −9.00
  Weekly RP Attacks Percent Change from Baseline, Max: −28.1, −28.1%
  Weekly RP Attacks Percent Change from Baseline, Mean (SD): −28.13%
  Weekly RP Attacks Percent Change from Baseline, Median: −28.13%
  Weekly RP Attacks Percent Change from Baseline, Min: −28.1, −28.1%
  Weekly RP Attacks Percent Change from Baseline, Q1: −28.13, −28.13%
  Weekly RP Attacks Percent Change from Baseline, Q3: −28.13, −28.13%
  Weekly RP Attacks, Max: 23.0, 23.0
  Weekly RP Attacks, Mean (SD): 23.00
  Weekly RP Attacks, Median: 23.00
  Weekly RP Attacks, Min: 23.0, 23.0
  Weekly RP Attacks, Q1: 23.00, 23.00
  Weekly RP Attacks, Q3: 23.00, 23.00
Cilnidipine 20 mg
  Weekly RP Attacks Change from Baseline, Max: −4.3
  Weekly RP Attacks Change from Baseline, Mean (SD): −6.67 (3.300)
  Weekly RP Attacks Change from Baseline, Median: −6.67
  Weekly RP Attacks Change from Baseline, Min: −9.0
  Weekly RP Attacks Change from Baseline, Q1: −9.00
  Weekly RP Attacks Change from Baseline, Q3: −4.33
  Weekly RP Attacks Percent Change from Baseline, Max: −45.0%
  Weekly RP Attacks Percent Change from Baseline, Mean (SD): −45.71 (1.010) Percent
  Weekly RP Attacks Percent Change from Baseline, Median: −45.71%
  Weekly RP Attacks Percent Change from Baseline, Min: −46.4%
  Weekly RP Attacks Percent Change from Baseline, Q1: −46.43%
  Weekly RP Attacks Percent Change from Baseline, Q3: −45.00%
  Weekly RP Attacks, Max: 11.0
  Weekly RP Attacks, Mean (SD): 8.00 (4.243)
  Weekly RP Attacks, Median: 8.00
  Weekly RP Attacks, Min: 5.0
  Weekly RP Attacks, Q1: 5.00
  Weekly RP Attacks, Q3: 11.00
[10]
  Weekly RP Attacks Change from Baseline, Max: −4.3
  Weekly RP Attacks Change from Baseline, Mean (SD): −7.44 (2.694)
  Weekly RP Attacks Change from Baseline, Median: −9.00
  Weekly RP Attacks Change from Baseline, Min: −9.0
  Weekly RP Attacks Change from Baseline, Q1: −9.00
  Weekly RP Attacks Change from Baseline, Q3: −4.33
  Weekly RP Attacks Percent Change from Baseline, Max: −28.1%
  Weekly RP Attacks Percent Change from Baseline, Mean (SD): −39.85 (10.180) Percent
  Weekly RP Attacks Percent Change from Baseline, Median: −45.00%
  Weekly RP Attacks Percent Change from Baseline, Min: −46.4%
  Weekly RP Attacks Percent Change from Baseline, Q1: −46.43%
  Weekly RP Attacks Percent Change from Baseline, Q3: −28.13%
  Weekly RP Attacks, Max: 23.0
  Weekly RP Attacks, Mean (SD): 13.00 (9.165)
  Weekly RP Attacks, Median: 11.00
  Weekly RP Attacks, Min: 5.0
  Weekly RP Attacks, Q1: 5.00
